Earlier results in patent publication US11122832B2, “Methods and compositions to improve weight loss and cardiometabolic health beyond diet and excercise” (Nature's Sunshine Products, Inc., priority 2016, dated 2021).
Like-named read-outs stand apart in the source and are kept apart here.

Assays:
[1] = system: plasma concentration of NOx; settings: 6 g, over 120 minutes, healthy individuals with normal plasma ADMA
[2] = not given; remark: listed apart in the source

N=C(N)NCCC[C@H](N)C(=O)O [L-arginine]
plasma concentration of NOx after acute supplementation [1]: does not increase

C[C@H]1CNCCc2ccc(Cl)cc21 [Lorcaserin]
Responders (5% weight loss) (Evaluation 12 weeks, BID 10 mg, placebo 12%): 36%
≥10% weight loss responders (Period 56 weeks, placebo 9%): 22%
≥5% weight loss responders (Period 56 weeks, placebo 23%): 47%

O=NO [NO2, nitrite]
filtered amount reabsorbed in the renal tubules ([2]; estimated): 96%

O=[N+]([O-])O [NO3, nitrate]
bioavailability of dietary NO3 ([2]; dietary (oral)): 100%
clearance from blood to urine ([2]; in adults): approximately 20 mL/min
time to peak plasma concentration ([2]; orally consumed): approximately 1 hour
half-life of plasma NO3 ([2]; plasma): 5 to 8 h

[N]=O [NO, Nitric oxide]
half-life of NO once produced through NOS ([2]; in vivo): approximately 1 second

CCCCCCCCCCC[C@@H](C[C@@H]1OC(=O)[C@H]1CCCCCC)OC(=O)[C@H](CC(C)C)NC=O [Orlistat]
≥5% weight loss responders (Period 24 weeks): 42%
≥10% weight loss responders (Period 24 weeks): 15%
≥5% weight loss responders (Period 24 weeks, listed as orlistat): 42%
